Results on two compounds are retold here after patent US20250295678A1, “ULTRA LOW DOSAGE ZOLEDRONIC ACID FOR TREATMENT OF RETINAL DISEASE” (The Regents of the University of California, priority 2022, published 2025).

Entries after “also recorded” stand apart in the source; their conditions may differ.

Experiment [1] deals with T1, acid sphingomyelinase (ASM) (Homo sapiens, UniProt P17405).
T1 sequence (P17405 47-631): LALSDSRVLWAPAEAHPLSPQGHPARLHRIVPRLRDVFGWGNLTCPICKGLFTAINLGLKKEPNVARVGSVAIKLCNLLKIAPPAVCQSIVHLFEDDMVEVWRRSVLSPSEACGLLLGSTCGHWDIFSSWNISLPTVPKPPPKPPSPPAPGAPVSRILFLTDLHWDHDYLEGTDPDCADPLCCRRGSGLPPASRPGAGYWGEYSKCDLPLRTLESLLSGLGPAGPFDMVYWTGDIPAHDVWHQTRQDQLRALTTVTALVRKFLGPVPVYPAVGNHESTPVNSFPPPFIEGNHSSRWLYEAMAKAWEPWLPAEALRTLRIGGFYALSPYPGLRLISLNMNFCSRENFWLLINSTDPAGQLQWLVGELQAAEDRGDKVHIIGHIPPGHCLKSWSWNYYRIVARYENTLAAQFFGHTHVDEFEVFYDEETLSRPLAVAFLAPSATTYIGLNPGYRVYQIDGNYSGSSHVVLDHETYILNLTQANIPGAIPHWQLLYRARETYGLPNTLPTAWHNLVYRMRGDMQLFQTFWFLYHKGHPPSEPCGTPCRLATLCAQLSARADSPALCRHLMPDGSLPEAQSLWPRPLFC
Particulars: functional ASM inhibitor, prior publication; cited from earlier work.

The subject of experiment [2] is polarized primary RPE cultures. Put plainly: Complement-mediated mitochondrial fragmentation in polarized primary RPE monolayers (A2E + NHS, MitoTracker live imaging). It counts as cell-based, porcine. As to the method:
Highly differentiated polarized primary RPE cultures were established from freshly harvested porcine eyes as described (Toops et al., 2014). To induce complement-mediate mitochondrial injury, RPE monolayers were treated with the lipofuscin bisretinoid A2E, which compromises mechanisms that protect the RPE from complement activation (Tan et al., 2016). RPE cells were exposed to active complement components (10% normal human serum, NHS, for 10 min at 37° C.) to induce complement activation on the RPE cell surface. […] After NHS exposure, cells were treated with 1 μM zoledronic acid for 3 h. RPE mitochondria were labeled with MitoTracker Deep Red and cells were imaged live on a Nikon spinning disc confocal microscopy as we have described (Tan et al., 2016; La Cunza et al., 2021). Mitochondrial surfaces were reconstructed from 4-dimensional images using Imaris (Bitplane).
Highly differentiated polarized primary RPE cultures were established from freshly harvested porcine eyes as described (Toops et al., 2014). To induce complement-mediate mitochondrial injury, RPE monolayers were treated with the lipofuscin bisretinoid A2E, which compromises mechanisms that protect the RPE from complement activation (Tan et al., 2016). RPE cells were exposed to active complement components (10% normal human serum, NHS, for 10 min at 37° C.) to induce complement activation on the RPE cell surface. […]

A further experiment concerns primary RPE cultures. Put plainly: Ceramide in primary RPE cultures treated with adiporon. The experiment is classed as cell-based, porcine. Conditions: 0.01-1 μM, 3 h.

In the case of `CNCCCN1c2ccccc2CCc2ccccc21` [desipramine], the “ceramide accumulation (prior work)” value in experiment [1] is “decreases ceramide alone; also recorded: can effectively inhibit ceramide accumulation”.
As for `O=C(COc1ccc(C(=O)c2ccccc2)cc1)NC1CCN(Cc2ccccc2)CC1` [adiporon], the “complement-mediated mitochondrial fragmentation in the RPE in vitro” value in experiment [2] (1 μM for 3 h after NHS exposure (FIG. 5, FIG. 9)) is given as “prevented complement-mediated mitochondrial fragmentation”. Moreover, in experiment [2] (0.01-1 μM, 3 h (0.01 μM data not shown)), the “complement-induced mitochondrial injury in primary RPE cultures” value is reported as “preventing complement-induced mitochondrial injury”. In addition, the “ceramide in primary RPE cultures” value in the experiment with primary RPE cultures was “effective in decreasing ceramide”.
